Experimental data: US4851521A, “Esters of hyaluronic acid” (priority 1985, dated 1989)

Assays:
[1] = test system: horny layer (skin); test: Skin hydration after topical application (corneometer); format: in vivo, human (healthy volunteers); conditions: 0.2% in ointment, single administration, average for 10 subjects
Experimental: In order to establish a comparison between hyaluronic acid and its derivatives of the present invention, some experiments were carried out to instrumentally evaluate, after topical application, the hydrating properties of the compounds in examination. All the compounds were […] concentration of 0.2% in an ointment the composition of which was as follows: […] Each volunteer was treated (single administration) with all the formulations in examination, which were applied (1 gr./ointment) to the inside surface of each forearm, distinguishing with a dermographic pencil the application zone (about 25 cm^2) of each product and standardizing the procedure as far as possible. To the right forearm were applied the compounds known as […]9, while to the left were applied HYAFF10, placebo and hyaluronic acid. […] Most particularly, the dielectric strength of the water was measured (in 0.8 seconds), after application of the sensor (condenser) to the skin surface. […] Registrations were carried out in constant humidity conditions.

solubility in DMSO [mg/mL] | Substance | x Δ% degree of hydration of the corneal layer, 1st hr [1] [%] | x Δ% degree of hydration of the corneal layer, 3rd hr [1] [%] | x Δ% degree of hydration of the corneal layer, 6th hr [1] [%] | x Δ% degree of hydration of the corneal layer, 24th hr [1] [%]
 | HYALURONIC ACID [reference compound] | 54.7 | 37.6 | 19.7 | 5.3
 | (partial) butyl ester of hyaluronic acid (HY) [HYAFF10] | 68.8 | 57.0 | 27.5 | 8.3
200 | benzylester of hyaluronic acid (HY) [HYAFF11] |  |  |  | 
